Measured values: patent US12441725B2, “ISO-citrate dehydrogenase (IDH) inhibitor” (ZHEJIANG METON PHARMACEUTICAL CO., LTD, priority 2019, dated 2025)

Columns and labels:
[1] = biological target: T1, IDH (endogenous IDH1 R132C) in HT1080 cell (Homo sapiens, UniProt O75874, R132C); assay: Cell-based assay for IDH inhibition (decrease of D-2-HG) in HT1080 cells; settings: human fibrosarcoma cell line HT1080, 16 hours treatment, D-2-HG by LC-MS, in triplet
T1 construct: which harbor endogenous heterozygous IDH1 R132C and R132H mutation respectively and accumulate D-2-HG
Excerpt: The present disclosure also provides a cell-based method for assaying IDH inhibition and selectivity of the compounds in human fibrosarcoma cell line HT1080 and cholangiocarcinoma cell line HCCC 9810, which harbor endogenous heterozygous IDH1 R132C and R132H mutation respectively and accumulate D-2-HG. Tumor -derived IDH mutant lost its normal activity of producing α-KG, and gained a new activity of producing D-2-HG. D-2-HG is a metabolite specifically elevated in tumor cells expressing mutant IDH1 or IDH2 proteins. When treating such mutant IDH-expressing tumor cells with an effective IDH inhibitor, the synthesis of D-2-HG is blocked, and D-2-HG concentration is decreased by the oxidation reaction catalyzed by the endogenous D-2-HG dehydrogenase.
To perform a cell-based IDH inhibition assay, HT1080 and HCCC 9810 cells (or other cell lines harboring different IDH mutations) are cultured in DMEM supplemented with 10% FBS. The cells are treated with compounds of present disclosure at various different concentrations. 16 hours after the treatment, culture medium supernatants are removed and cell metabolites are extracted by 40% methanol and 40% acetonitrile in water (pre-chilled under −80° C.) at 4° C. for 1 hour. The extract supernatants are collected and cell debris are removed via high speed centrifugation. The resulting metabolite extracts are analyzed on an Agilent LC-MS system (model: 1290-6470) for 2-HG and glutamate concentration. A HILIC-Z column (2.1 mm×100 mm, […]) is employed on HPLC. Mobile phase A is 15 mM CH3COONH4 and 0.3% NH3·H2O in water. Mobile phase B is 15 mM CH3COONH4 and 0.3% NH3·H2O in 90% MeCN/10% H2O solvent. An 19% solvent A and 81% solvent B isocratic gradient method is used at a flow rate of 0.3 ml/min. D-2-HG is ionized under negative ion spray mode and detected through the multiple-reaction monitoring of a mass transition pair at m/z=147.0/128.9 and 147.0/85.1. Glutamate is ionized under ion spray mode and detected on negative polarity multiple-reaction monitoring of a mass transition pair at m/z=146/102 and 146/128 and its level is used to normalize 2-HG concentration. The activity of cellular mutant IDH proteins in the presence of each test compound at different concentrations can be represented by relative D-2-HG concentration to negative control samples (i.e., cells are treated with DMSO only), and the IC50 value could be determined to evaluate the inhibition and selectivity of each test compound on the IDH enzymatic activity.
The IDH inhibition activity of the compounds were assessed in human fibrosarcoma cell line HIT1080 according to Test 3 of the Biological Assay section. The test for IDH inhibition of each compound was carried out in triplet. As used in Table 6, “A” refers to an IDH inhibitory activity with an IC50<0.1 μM; “B” refers to an IDH inhibitory activity with an IC50 from 0.1 μM to 0.5 μM; “C” refers to an IDH inhibitory activity with an IC50 from 0.5 μM to 1 μM; “D” refers to an IDH inhibitory activity with an IC50>1 μM.

IDH1 R132C = biological target: T2, IDH1 R132C (Homo sapiens, UniProt O75874, R132C); assay: Biochemical assay for IDH inhibition (NADPH fluorescence), mutant IDH1 R132C; settings: 25 nM IDH1-R132C, 1 hour pre-incubation, in triplet
T2 construct: 6xHis
Excerpt: (§1) The present disclosure provides a biochemical assay method for detecting the IDH inhibition and selectivity of the compounds by detecting IDH enzyme activity directly.
(§2) Wild-type IDH enzymes convert NADP^+ to NADPH when catalyzing the α-KG producing reaction. Mutant IDH enzymes convert NADPH to NADP^+ when catalyzing the D-2-HG producing reaction. So, the activity of wild-type and mutant IDH1/2 could be measured by monitoring NADPH level change as NADPH is fluorescent (Excitation 340 nm, Emission 460 nm). By monitoring the change of NADPH level in the reaction, the enzyme activity could be determined rapidly and efficiently and IC50 of a compound could also be assayed.
(§3) The test compounds are prepared into 50 mM stock solutions in DMSO and stored at −20° C. Each test compound stock is further diluted to obtain a 100× stock solution at a concentration of 400 μM, 200 μM, 100 μM, 50 μM, 25 μM, 12.5 μM, 6.25 μM and 3.125 μM, respectively, for the final use on the day of test (the concentration range of 100× stock solutions might be adjusted to cover the estimated IC50 of a specific test compound).
(§4) Inhibition of Mutant IDH1 (R132H or R132C):
(§5) To assay the enzymatic activity of mutant IDH1 proteins, 25 nM IDH1-R132C or 50 nM IDH1-R132H protein solutions are prepared in 20 mM Tris-HCl pH7.5, 150 mM NaCl, 10 mM MgCl2, 1 mM DTT, 0.05 mg/ml BSA and 1.33 mM α-KG. 148 μL 25 nM IDH1-R132C or 50 nM IDH1-R132H protein solutions are mixed with 2 μL DMSO (vehicle control for test compounds) or an above-mentioned 100× stock solution of a test compound and incubated for 1 hour at room temperature. Extra reactions containing 148 μL no-enzyme solution (20 mM Tris-HCl pH7.5, 150 mM NaCl, 10 mM MgCl2, 1 mM DTT, 0.05 mg/ml BSA and 1.33 mM α-KG) and 2 μL DMSO are also set up as background controls. Then each reaction is initiated by adding 50 μL 80 μM NADPH solution prepared in 20 mM Tris-HCl pH7.5, 150 mM NaCl, 10 mM MgCl2, 1 mM DTT and 0.05 mg/ml BSA. BioTek Synergy H1 Microplate reader (BioTek Instruments Inc., Winooski, U.S.) is employed to monitor the NADPH fluorescence (Excitation 340 nm, Emission 460 nm) every 42 seconds for 15 minutes. NADPH change rate is determined according to the linear phase of the fluorescence-time curve and results from the background control reactions are used as background subtraction to calculate the net NADPH change rates of other reactions. The net NADPH change rates from the vehicle control reactions are used as 100% enzymatic activity and thus the relative enzymatic activity of reactions with test compounds added could be determined. Then a dose-response curve is drawn for each test compound and the corresponding IC50 is calculated. The IC50 value is used to evaluate the inhibition and selectivity of each test compound on the IDH enzymatic activity.
(§6) The IDH inhibition activity of the compounds were assessed according to Test 2 of the Biological Assay section. The test for mutant IDH1 R132H and IDH1 R132C inhibition of each compound was carried out in triplet. As used in Table 5, “A” refers to an inhibitory activity against IDH1 R132H or IDH1 R132C with an IC50<0.1 μM; “B” refers to an inhibitory activity against IDH1 R132H or IDH1 R132C with an IC50 from 0.1 μM to 0.5 μM; “C” refers to an inhibitory activity against IDH1 R132H or IDH1 R132C with an IC50 from 0.5 μM to 1 μM; “D” refers to an inhibitory activity against IDH1 R132H or IDH1 R132C with an IC50>1 μM.

IDH1 R132H = biological target: T3, IDH1 R132H (Homo sapiens, UniProt O75874, R132H); assay: Biochemical assay for IDH inhibition (NADPH fluorescence), mutant IDH1 R132H; settings: 50 nM IDH1-R132H, 1 hour pre-incubation, in triplet
T3 construct: 6xHis
Excerpt: as §1, §2, §3, §4, §5, §6

T2 sequence (O75874 whole entry R132C): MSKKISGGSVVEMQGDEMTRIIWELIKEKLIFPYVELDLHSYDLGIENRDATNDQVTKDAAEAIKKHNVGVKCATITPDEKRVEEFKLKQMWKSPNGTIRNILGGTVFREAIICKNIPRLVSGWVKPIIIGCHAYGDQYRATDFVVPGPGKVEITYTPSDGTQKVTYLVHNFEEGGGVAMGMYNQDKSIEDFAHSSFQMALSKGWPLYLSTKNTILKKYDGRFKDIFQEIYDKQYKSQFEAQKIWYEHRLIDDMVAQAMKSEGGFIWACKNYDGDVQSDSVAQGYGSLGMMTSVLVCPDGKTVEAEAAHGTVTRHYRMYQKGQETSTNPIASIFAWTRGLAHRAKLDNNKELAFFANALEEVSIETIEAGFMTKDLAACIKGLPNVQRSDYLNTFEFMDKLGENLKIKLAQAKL
T3 sequence (O75874 whole entry R132H): as the sequence (O75874 whole entry R132C) above, with C132H counted along it
T1 sequence (O75874 2-414 R132C): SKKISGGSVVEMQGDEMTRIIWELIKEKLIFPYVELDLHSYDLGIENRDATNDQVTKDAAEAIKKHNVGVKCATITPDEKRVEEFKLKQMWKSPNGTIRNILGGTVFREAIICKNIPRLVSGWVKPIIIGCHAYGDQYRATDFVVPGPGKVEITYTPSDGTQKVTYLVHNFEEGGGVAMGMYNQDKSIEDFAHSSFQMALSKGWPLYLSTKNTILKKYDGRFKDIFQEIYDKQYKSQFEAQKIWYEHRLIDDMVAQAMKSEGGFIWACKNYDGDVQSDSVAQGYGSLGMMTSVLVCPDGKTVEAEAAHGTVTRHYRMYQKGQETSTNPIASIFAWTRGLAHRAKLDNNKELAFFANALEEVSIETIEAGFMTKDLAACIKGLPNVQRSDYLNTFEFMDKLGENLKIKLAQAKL

| IC50 [1] | IC50 (IDH1 R132C) | IC50 (IDH1 R132H) | SMILES |
| --- | --- | --- | --- |
| > 1000 nM | 500 to 1000 nM | 100 to 500 nM | CCN1Cc2c(ccnc2N[C@@H](C)c2ccc(-c3ccc4c(ccn4C)c3)c(F)c2)C1=O [Compound 72, (S)-2-ethyl-4-((1-(3-fluoro-4-(1-methyl-1H-indol-5-yl)phenyl)ethyl)amino)-2,3-dihydro-1H-pyrrolo[3,4-c]pyridin-1-one] |
| > 1000 nM | > 1000 nM | > 1000 nM | CCN1Cc2c(ccnc2N[C@@H](C)c2ccc(CN3CCC(F)(F)CC3)c(F)c2)C1=O [Compound 55, (S)-4-((1-(4-((4,4-difluoropiperidin-1-yl)methyl)-3-fluorophenyl)ethyl)amino)-2-ethyl-2,3-dihydro-1H-pyrrolo[3,4-c]pyridin-1-one] |
| 100 to 500 nM | > 1000 nM | > 1000 nM | CCN1Cc2c(N[C@@H](C)c3ccc(Oc4ccc(C)cc4)c(F)c3)ncnc2C1=O [Compound 65, 6-ethyl-4-[[(1S)-1-[3-fluoro-4-(4-methylphenoxy)phenyl]ethyl]amino]-5H-pyrrolo[3,4-d]pyrimidin-7-one] |
| 100 to 500 nM | 500 to 1000 nM | 100 to 500 nM | CCN1Cc2c(ccnc2N[C@@H](C)c2cc(F)c(-c3ccnc(-c4ccnc(Cl)c4)c3)cc2F)C1=O [Compound 96, (S)-4-((1-(4-(2′-chloro-[2,4′-bipyridin]-4-yl)-2,5-difluorophenyl)ethyl)amino)-2-ethyl-2,3-dihydro-1H-pyrrolo[3,4-c]pyridin-1-one] |
| < 100 nM | < 100 nM | < 100 nM | CCN1Cc2c(ccnc2N[C@@H](C)c2cc(F)c(-c3cc(C(C)(C)F)c(Cl)cn3)cc2F)C1=O [Compound 136, (S)-4-((1-(4-(5-chloro-4-(2-fluoropropan-2-yl)pyridin-2-yl)-2,5-difluorophenyl)ethyl)amino)-2-ethyl-2,3-dihydro-1H-pyrrolo[3,4-c]pyridin-1-one] |
| > 1000 nM | > 1000 nM | > 1000 nM | CCN1Cc2c(ccnc2N[C@@H](C)c2ccc(C(=O)c3ccccc3)c(F)c2)C1=O [Compound 60, (S)-4-((1-(4-benzoyl-3-fluorophenyl)ethyl)amino)-2-ethyl-2,3-dihydro-1H-pyrrolo[3,4-c]pyridin-1-one] |
| – | > 1000 nM | > 1000 nM | CCN1Cc2c(ccnc2N[C@@H](C)c2ccc(Cc3ccnc(C(F)(F)F)c3)c(F)c2)C1=O [Compound 53, (S)-2-ethyl-4-((1-(3-fluoro-4-((2-(trifluoromethyl)pyridin-4-yl)methyl)phenyl)ethyl)amino)-2,3-dihydro-1H-pyrrolo[3,4-c]pyridin-1-one] |
| > 1000 nM | > 1000 nM | 100 to 500 nM | CCN1Cc2c(ccnc2N[C@@H](C)c2ccc(-c3ccnc(C(C)(C)C#N)c3)c(F)c2)C1=O [Compound 84, (S)-2-(4-(4-(1-((2-ethyl-1-oxo-2,3-dihydro-1H-pyrrolo[3,4-c]pyridin-4-yl)amino)ethyl)-2-fluorophenyl)pyridin-2-yl)-2-methylpropanenitrile] |
| 100 to 500 nM | 100 to 500 nM | < 100 nM | CCN1Cc2c(ccnc2N[C@@H](C)c2cc(F)c(-c3cc(NC(C)(C)C)cc(C)n3)cc2F)C1=O [Compound 128, (S)-4-((1-(4-(4-(tert-butylamino)-6-methylpyridin-2-yl)-2,5-difluorophenyl)ethyl)amino)-2-ethyl-2,3-dihydro-1H-pyrrolo[3,4-c]pyridin-1-one] |
| > 1000 nM | 500 to 1000 nM | 100 to 500 nM | CCN1Cc2c(N[C@@H](C)c3ccc(-c4ccc(F)c(C)c4)c(F)c3)ncc(F)c2C1=O [Compound 41, (S)-4-((1-(2,4′-difluoro-3′-methyl-[1,1′-biphenyl]-4-yl)ethyl)amino)-2-ethyl-7-fluoro-2,3-dihydro-1H-pyrrolo[3,4-c]pyridin-1-one] |
| > 1000 nM | 100 to 500 nM | 100 to 500 nM | CCN1Cc2c(ccnc2N[C@@H](C)c2ccc(Cc3ccccc3)c(F)c2)C1=O [Compound 52, (S)-4-((1-(4-benzyl-3-fluorophenyl)ethyl)amino)-2-ethyl-2,3-dihydro-1H-pyrrolo[3,4-c]pyridin-1-one] |
| 100 to 500 nM | > 1000 nM | 500 to 1000 nM | CCN1Cc2c(ccnc2N[C@@H](C)c2cc(F)c(-c3ccnc(-c4ccccc4)c3)cc2F)C1=O [Compound 98, (S)-4-((1-(2,5-difluoro-4-(2-phenylpyridin-4-yl)phenyl)ethyl)amino)-2-ethyl-2,3-dihydro-1H-pyrrolo[3,4-c]pyridin-1-one] |
| 500 to 1000 nM | > 1000 nM | > 1000 nM | CCN1Cc2c(ccnc2N[C@@H](C)c2ccc(-c3ccnc(C4(O)CCC4)c3)c(F)c2)C1=O [Compound 78, (S)-2-ethyl-4-((1-(3-fluoro-4-(2-(1-hydroxycyclobutyl)pyridin-4-yl)phenyl)ethyl)amino)-2,3-dihydro-1H-pyrrolo[3,4-c]pyridin-1-one] |
